Literature values, collected in patent US12527815B2, “Aqueous formulation including dissolved hydrogen gas and minerals and additives” (BEST PLANET SCIENCE LLC, priority 2023, dated 2026).

Conditions: partial pressure of one atm

Compound: [HH] [hydrogen gas, hydrogen]
- equilibrium concentration (saturation) of hydrogen gas in water: 1.57 mg/L
